Experimental data as given in patent US9340500B2, “Aromatic heterocyclic derivative having TRPV4-inhibiting activity” (SHIONOGI & CO., LTD., priority 2011, dated 2016).

Molecular target: human TRPV4 (Homo sapiens (Human), UniProt Q9HBA0)
Assay: Test Example 3: measurement of TRPV4 inhibitory activity (Fluo-3, FDSS 3000, 4α-PDD)
Type: cell-based
Settings: hTRPV4/CHO cells, calculated from IC50 and 4α-PDD EC50
Method: For each compound, TRPV4 inhibitory activity was measured using cells.
(1) The TRPV4 inhibitory activity was measured using CHO-K1 cells stably expressing human TRPV4 (hTRPV4/CHO cells).
(2) Frozen cells were thawed and subcultured with the medium (MEM-α, 10% FBS, […], 50 unit/mL penicillin, 50 μg/mL streptomycin, 1 mg/mL G418).
(3) The 96-well plates which hTRPV4/CHO cells were seeded at densities of 2×10^4 cells/well in the culture medium and cultured in a CO2 incubator in the presence of 5% CO2 at 37° C. for 24 h was used as assay plates.
(4) The assay plate was washed with assay buffer (Hanks, […], […], pH7.4).
(5) Fluo-3, fluorescent dye for Ca influx assay was added to each well, then the assay plate was incubated in a CO2 incubator in the presence of 5% CO2 at 37° C. for one hour (final conc.; 5 μmmol/L Fluo-3).
(6) The assay plate was washed with the assay buffer, and the buffer was remained at 30 μL/well. Then the assay plate was incubated for 10 min at 37° C.
(7) Diluted compound solution was dispensed to each well in the compound plate, and mixed with built-in Pipette and Mixer of the fluorescence analysis system FDSS 3000 (Hamamatsu Photonics).
(8) 50 μL of 4α-PDD solution (concluding 0.1% Pluronic F-127) was applied to each well of assay plate and mixed.
(9) The fluorescent intensity was measured by FDSS 3000 for 8 min from the point of time addition the compound solution, at Ex 480 nm, Em 540 nm wavelength.
TRPV4 inhibitory activity (Ki value) of a compound was evaluated according to the following procedure.
(10) In the presence of the compound, the difference between maximal and minimal of fluorescent intensity value for 8 min from just before addition of 4α-PDD solution was calculated, and it was referred as Max-Min value. Max-Min value of the Ruthenium Red at 10 μM was defined as 100% inhibitory activity, Max-Min value in the absence of the compound was defined as 0% inhibitory activity. The TRPV4 inhibitory activity of the compound was calculated by the following formula. (1−(Max-Min value of the compound−100% inhibitory activity)/(0% inhibitory activity−100% inhibitory activity))×100 (11) By the following formula, inhibitory activity was calculated at 10 points with three fold serial dilution, in the final concentration of the compound from 10 μmmol/L to 0.5 nmol/L. The IC50 value was calculated by dose-response curve. 100−[(fluorescent intensity in the presence of the compound−fluorescent intensity of back ground)/(total fluorescent intensity−fluorescent intensity of back ground)]×100 (12) In the presence of the compound, activity of 4α-PDD was measured at 9 points with three fold serial dilution from 20 μmol/L. Activity of 4α-PDD was calculated by the following formula. (Max-Min value of the each 4α-PDD concentration−0% activity)/(100% activity−0% activity))×100 (13) Effective activity was calculated in 4α-PDD the above. The EC50 value was calculated by dose-response curve. (14) The Ki value of a compound was calculated by the following formula. Ki (nmol/L)=IC50 value (nmol/L)/([A]/EC50 value (nmol/L)) [A]; Concentration of agonist (nmol/L)

Sequence of human TRPV4 (Q9HBA0 whole entry): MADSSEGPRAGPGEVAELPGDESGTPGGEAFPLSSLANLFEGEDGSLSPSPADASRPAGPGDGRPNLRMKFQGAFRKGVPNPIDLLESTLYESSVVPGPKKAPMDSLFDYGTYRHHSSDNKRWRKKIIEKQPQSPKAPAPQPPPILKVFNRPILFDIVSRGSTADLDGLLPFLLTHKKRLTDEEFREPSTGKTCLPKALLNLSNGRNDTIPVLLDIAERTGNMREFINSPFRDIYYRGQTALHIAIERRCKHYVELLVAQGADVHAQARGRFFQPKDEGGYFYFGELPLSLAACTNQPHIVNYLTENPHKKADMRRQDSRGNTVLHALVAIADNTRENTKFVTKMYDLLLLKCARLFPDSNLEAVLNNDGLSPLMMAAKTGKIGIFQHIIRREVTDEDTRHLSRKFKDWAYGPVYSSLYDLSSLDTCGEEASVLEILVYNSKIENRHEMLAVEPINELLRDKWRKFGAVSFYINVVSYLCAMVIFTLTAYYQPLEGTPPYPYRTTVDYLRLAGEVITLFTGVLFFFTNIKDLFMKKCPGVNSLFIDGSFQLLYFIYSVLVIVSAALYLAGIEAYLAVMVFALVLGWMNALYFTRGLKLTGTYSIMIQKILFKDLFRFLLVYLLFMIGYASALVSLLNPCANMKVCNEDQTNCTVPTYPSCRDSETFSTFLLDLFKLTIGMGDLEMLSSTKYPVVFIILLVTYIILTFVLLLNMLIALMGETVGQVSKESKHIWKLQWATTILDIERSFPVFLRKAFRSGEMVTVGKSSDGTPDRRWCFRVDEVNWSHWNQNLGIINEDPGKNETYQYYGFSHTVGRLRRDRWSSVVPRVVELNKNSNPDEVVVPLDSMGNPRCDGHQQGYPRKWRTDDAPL

Structure (SMILES) | Ki
Cc1c(C(=O)OCc2ccccc2)cc(C(C)(C)C)n1CCCN1CCOCC1 [Compound I-001] | 3960 nM
Cc1c(C(=O)Nc2cccc(C(F)(F)F)c2)cc(-c2ccccc2)n1CCCNc1ccccc1 [Compound I-011] | 1700 nM
Cc1c(C(=O)Nc2cccc(C(F)(F)F)c2)cc(-c2ccccc2)n1CCCN(C)c1ccccc1 [Compound I-012] | 1140 nM
Cc1c(C(=O)Nc2cccc(Cl)c2)cc(-c2ccccc2)n1CCCN1CCOCC1 [Compound I-013] | 453 nM
Cc1c(C(=O)Nc2nc3ccccc3s2)cc(-c2ccccc2)n1CCCN1CCOCC1 [Compound I-020] | 992 nM
Cc1c(C(=O)Nc2cccc(C(C)C)c2)cc(-c2ccccc2)n1CCCN1CCOCC1 [Compound I-029] | 519 nM
Cc1c(C(=O)Nc2cccc(C(F)(F)F)c2)cc(-c2ccccc2)n1CCCN(C)CCOCc1ccccc1 [Compound I-034] | 2620 nM
CCOC(=O)C1CC1CN(C)CCCn1c(-c2ccccc2)cc(C(=O)Nc2cccc(C(F)(F)F)c2)c1C (centres unmarked) [Compound I-037] | 1800 nM
Cc1c(C(=O)Nc2cccc(C(F)(F)F)c2)cc(-c2ccccc2)n1CCCN(C)C(=O)c1ccco1 [Compound I-043] | 1380 nM
COCC(=O)N(C)CCCn1c(-c2ccccc2)cc(C(=O)Nc2cccc(C(F)(F)F)c2)c1C [Compound I-045] | 1720 nM
Cc1c(C(=O)Nc2cccc(C(F)(F)F)c2)cc(-c2ccccc2)n1CCCN(C)C(=O)Cc1cccs1 [Compound I-046] | 1680 nM
Cc1c(C(=O)Nc2cccc(C(F)(F)F)c2)cc(-c2ccccc2)n1CCCN(C)C(=O)c1ccc2c(c1)OCO2 [Compound I-048] | 1310 nM
COCCOCC(=O)N(C)CCCn1c(-c2ccccc2)cc(C(=O)Nc2cccc(C(F)(F)F)c2)c1C [Compound I-050] | 1140 nM
Cc1c(C(=O)Nc2cccc(C(F)(F)F)c2)cc(-c2ccccc2)n1CCCN(C)C(=O)c1ccccn1 [Compound I-054] | 1160 nM
CC(=O)N1CCC(C(=O)N(C)CCCn2c(-c3ccccc3)cc(C(=O)Nc3cccc(C(F)(F)F)c3)c2C)CC1 [Compound I-057] | 1790 nM
Cc1c(C(=O)Nc2cccc(C(F)(F)F)c2)cc(-c2ccccc2)n1CCCN(C)C(=O)c1ccc2occc2c1 [Compound I-058] | 1650 nM
Cc1c(C(=O)Nc2cccc(C(F)(F)F)c2)cc(-c2ccccc2)n1CCCN(C)C(=O)c1ccc(N(C)C)cc1 [Compound I-060] | 1350 nM
Cc1c(C(=O)Nc2cccc(C(F)(F)F)c2)cc(-c2ccccc2)n1CCCN(C)C(=O)c1csc(-c2ccccc2)n1 [Compound I-061] | 1700 nM
Cc1c(C(=O)Nc2cccc(C(F)(F)F)c2)cc(-c2ccccc2)n1CCCN(C)C(=O)c1csc(-c2cccs2)n1 [Compound I-062] | 1390 nM
Cc1c(C(=O)Nc2cccc(C(F)(F)F)c2)cc(-c2ccccc2)n1CCCN(C)C(=O)C(=O)c1c[nH]c2ccccc12 [Compound I-067] | 2370 nM

Second part, the compound after the results:

Ki | Structure (SMILES)
701 nM | Cc1c(C(=O)Nc2cccc(C(F)(F)F)c2)cc(-c2ccccc2)n1CCCN(C)C(=O)OC(C)(C)C [Compound I-030]
1000 nM | Cc1c(C(=O)Nc2cccc(C(F)(F)F)c2)cc(-c2ccccc2)n1CCCN(C)CC1CCOC1 (centres unmarked) [Compound I-036]
1140 nM | Cc1c(C(=O)Nc2cccc(C(F)(F)F)c2)cc(-c2ccccc2)n1CCCN(C)CC1CCOCC1 [Compound I-040]
988 nM | COC(=O)CCCN(C)CCCn1c(-c2ccccc2)cc(C(=O)Nc2cccc(C(F)(F)F)c2)c1C [Compound I-041]
1120 nM | Cc1c(C(=O)Nc2cccc(C(F)(F)F)c2)cc(-c2ccccc2)n1CCCN(C)C(=O)C1CCCCC1 [Compound I-042]
844 nM | Cc1c(C(=O)Nc2cccc(C(F)(F)F)c2)cc(-c2ccccc2)n1CCCN(C)C(=O)c1cccs1 [Compound I-044]
320 nM | Cc1c(C(=O)Nc2cccc(C(F)(F)F)c2)cc(-c2ccccc2)n1CCCN(C)C(=O)c1ccncc1 [Compound I-047]
590 nM | Cc1c(C(=O)Nc2cccc(C(F)(F)F)c2)cc(-c2ccccc2)n1CCCN(C)C(=O)C(C)C [Compound I-051]
707 nM | Cc1c(C(=O)Nc2cccc(C(F)(F)F)c2)cc(-c2ccccc2)n1CCCN(C)C(=O)C1CC1 [Compound I-052]
978 nM | Cc1c(C(=O)Nc2cccc(C(F)(F)F)c2)cc(-c2ccccc2)n1CCCN(C)C(=O)c1cccnc1 [Compound I-053]
984 nM | Cc1c(C(=O)Nc2cccc(C(F)(F)F)c2)cc(-c2ccccc2)n1CCCN(C)C(=O)c1ccc2ccccc2n1 [Compound I-055]
560 nM | CC(=O)Nc1ccc(C(=O)N(C)CCCn2c(-c3ccccc3)cc(C(=O)Nc3cccc(C(F)(F)F)c3)c2C)cc1 [Compound I-056]
472 nM | Cc1c(C(=O)Nc2cccc(C(F)(F)F)c2)cc(-c2ccccc2)n1CCCN(C)C(=O)C1CCC1 [Compound I-059]
713 nM | Cc1c(C(=O)Nc2cccc(C(F)(F)F)c2)cc(-c2ccccc2)n1CCCN(C)C(=O)C(Cl)(Cl)Cl [Compound I-064]
850 nM | COc1ccc(OC)c(CC(=O)N(C)CCCn2c(-c3ccccc3)cc(C(=O)Nc3cccc(C(F)(F)F)c3)c2C)c1 [Compound I-065]
662 nM | Cc1c(C(=O)Nc2cccc(C(F)(F)F)c2)cc(-c2ccccc2)n1CCCN(C)C(=O)c1cnc2ccccc2n1 [Compound I-066]
1010 nM | Cc1c(C(=O)Nc2cccc(C(F)(F)F)c2)cc(-c2ccccc2)n1CCCN(C)C(=O)C1CCOCC1 [Compound I-068]
816 nM | Cc1c(C(=O)Nc2cccc(C(F)(F)F)c2)cc(-c2ccccc2)n1CCCN(C)C(=O)c1cccc(N(C)C)c1 [Compound I-069]
